Data published in article PMC7589190, “Targeted Amino Acid Substitutions in a Trichoderma Peptaibol Confer Activity against Fungal Plant Pathogens and Protect Host Tissues from Botrytis cinerea Infection” (International Journal of Molecular Sciences, 2020).
Marks after values point to notes of the source that are not given here. Square brackets hold non-standard residues; d marks the D form. Peptide text beside a SMILES is read from it. * marks the point of attachment. Leu(ol) = CC(C)C[C@H](N)CO; Octanoyl = CCCCCCCC(=O)*; Api = NC1(C(=O)O)CCNCC1; Aib = CC(C)(N)C(=O)O

Columns and labels:
B. cinerea [1] = experiment: Resazurin vital dye growth assay in microtiter wells; assay type: cell-based, Botrytis cinerea; parameters: key to Antifungal Activity: –, no activity; settings: for Growth Delay / fungal growth / activity against B. cinerea (in words): peptide 15 µM; for Growth Delay: PDB pH 6.9, 5 × 10^5 spores mL^−1, resazurin, 25 °C dark, vs untreated control, repeated three times; for fungal growth / activity against B. cinerea (in words): resazurin dye; for Antifungal Activity: summary of performance of Lys-containing analogs against B. cinerea
B. cinerea [2] = experiment: Protection of common bean leaves from B. cinerea infection; settings: for reduction of infected (symptomatic) leaf area: common bean leaves (Phaseolus vulgaris, Borlotto var. Teggia), peptide sprayed at 50 µM
Description: Leaves of common bean (Phaseolus vulgaris, Borlotto var. Teggia) were detached from 12 days-old plants grown in organic soil into a climatic chamber with a 14 h photoperiod and 22/20 °C day/night temperature.
Treatments were performed by spraying the peptides at different concentrations on leaves and berries. Water spraying was performed as a negative control.
Leaves were arranged on moist towels in plastic trays and inoculated with a suspension of 2.5 × 10^6 mL^−1 conidia of B. cinerea in potato dextrose broth (PDB). Ten microliters of the conidia suspension were dropped on two or three points apart on the leaf surface of common bean and grapevine leaves, respectively.
Inoculated leaves and berries were incubated in the dark at 25 °C in plastic bags to maintain humidity.
Seven days post-inoculation (dpi), the size of the symptomatic leaf area was measured from pictures taken with a Panasonic Lumix DMC-FZ2000 by using the graphic software “Fiji ImageJ” (GNU General Public License).
The experiment was repeated three times with leaves and four times with berries. Each treatment was performed with seven leaves of common bean and three leaves of the grapevine.
Data obtained in the infection experiments performed on common bean leaves were statistically analyzed by applying the one-way Anova Bonferroni–Holm test. The statistical analysis was performed within the groups of peptides tested at the same time compared to their respective control.

B. cinerea conidia = experiment: Cell viability assay of conidia (Evan's blue staining, plating on PDA); assay type: cell-based, Botrytis cinerea; settings: 15 µM
B. cinerea [3] = assay type: cell-based, Botrytis cinerea; settings: 15 µM, 96 h, absorbance at 450 nm
B. sorokiniana = assay type: cell-based, Bipolaris sorokiniana; settings: 15 µM, 96 h, absorbance at 450 nm
B. cinerea [4] = experiment: Protection of grapevine leaves from B. cinerea infection; assay type: in vivo, Botrytis cinerea; settings: grapevine leaves cv. Glera, 50 µM, 7 dpi, vs water control, three experiments
B. cinerea [5] = experiment: Protection of grape berries from B. cinerea infection; assay type: in vivo, Botrytis cinerea; settings: 50 µM, vs control
F. graminearum = settings: for MIC: 96 h, pH 6.9
P. expansum = settings: 15 µM, 96 h, absorbance at 450 nm
[6] = system: pronase E (a mixture of different proteases); settings: after 27 h, HPLC
trypsin = settings: HPLC
[7] = monitored every 12 h for seven days

| SMILES | Growth Delay (B. cinerea [1]; [7]) | fungal growth / activity against B. cinerea (in words) (B. cinerea [1]; [7]) | Antifungal Activity (B. cinerea [1]) | Growth Delay (B. cinerea [1]; monitored for seven days) | reduction of infected (symptomatic) leaf area (B. cinerea [2]; 7 dpi, vs water control) | also measured |
| --- | --- | --- | --- | --- | --- | --- |
| CCCCCCCC(=O)NC(C)(C)C(=O)N[C@@H](CCCCN)C(=O)N[C@@H](CC(C)C)C(=O)NC(C)(C)C(=O)NCC(=O)N[C@@H](CCCCN)C(=O)N[C@@H](CC(C)C)C(=O)NC(C)(C)C(=O)NCC(=O)N[C@H](C(=O)N[C@H](CO)CC(C)C)[C@@H](C)CC [Peptide 7] | 3 to 3.5 days | delayed growth | ++ |  |  |  |
| CCCCCCCC(=O)NC(C)(C)C(=O)N[C@@H](CCCCN)C(=O)N[C@@H](CC(C)C)C(=O)NC(C)(C)C(=O)NCC(=O)NCC(=O)N[C@@H](CC(C)C)C(=O)NC(C)(C)C(=O)NCC(=O)N[C@H](C(=O)N[C@H](CO)CC(C)C)[C@@H](C)CC [Peptide 2] (Octanoyl-[Aib]KL[Aib]GGL[Aib]GI[Leu(ol)]) | 1.5 to 2 days | delayed growth | ++ |  |  |  |
| CCCCCCCC(=O)NC(C)(C)C(=O)N[C@@H](CCCCN)C(=O)N[C@@H](CCCCN)C(=O)N[C@@H](CC(C)C)C(=O)NC(C)(C)C(=O)NCC(=O)N[C@H](C(=O)N[C@@H](CC(C)C)C(N)=O)[C@@H](C)CC [Peptide 4c2] (Octanoyl-[Aib]KKL[Aib]GIL-NH2) |  | inhibiting mycelial growth |  | >7 days | about 70% |  |
| CCCCCCCC(=O)NC(C)(C)C(=O)NCC(=O)N[C@@H](CC(C)C)C(=O)NC(C)(C)C(=O)N[C@@H](CCCCN)C(=O)N[C@@H](CCCCN)C(=O)N[C@@H](CC(C)C)C(=O)NC(C)(C)C(=O)NCC(=O)N[C@H](C(=O)N[C@H](CO)CC(C)C)[C@@H](C)CC [Peptide 4] |  | No growth occurred | ++++ | >7 days | > 95% | germination of conidia (microscopy, Evans blue) (B. cinerea conidia; 24 h incubation in PDB, 5 × 10^5 mL^−1 conidia): conidia did not germinate; fungal growth after rinsing and plating treated conidia on PDA (fungicidal activity) (B. cinerea conidia; treated 24 h, rinsed with distilled water, plated on PDA): No fungal growth was observed; growth inhibition at maximum concentration tested (B. cinerea [3]): completely inhibited the growth; growth inhibition at maximum concentration tested (B. sorokiniana): strong growth inhibition effect; reduction of infected leaf area (B. cinerea [4]): about 70%; increase in the number of asymptomatic berries (B. cinerea [5]): threefold increase; growth inhibition at maximum concentration tested (F. graminearum): completely inhibited the growth; MIC (F. graminearum): 5 to 15 µM; growth inhibition at maximum concentration tested (P. expansum): completely inhibited the growth; disease symptoms (in words) (B. cinerea [2]; common bean leaves, 15 µM): significant decrease in disease symptoms; disease symptoms (in words) (B. cinerea [2]; common bean leaves, 50 µM): almost complete annulment; reduction of lesion (symptomatic leaf) area (B. cinerea [2]; common bean leaves, peptide sprayed at 15 µM, 7 dpi, vs water control): about 75% |
| CCCCCCCC(=O)NC(C)(C)C(=O)N[C@@H](CCCCN)C(=O)N[C@@H](CC(C)C)C(=O)NC(C)(C)C(=O)N[C@@H](CCCCN)C(=O)NCC(=O)N[C@@H](CC(C)C)C(=O)NC(C)(C)C(=O)NCC(=O)N[C@H](C(=O)N[C@H](CO)CC(C)C)[C@@H](C)CC [Peptide 1] (Octanoyl-[Aib]KL[Aib]KGL[Aib]GI[Leu(ol)]) | 0.5 to 1 days | delayed growth | + ^a |  |  | stability against pronase [6]: stable; time to digestion by trypsin (trypsin): less than 15 min |
| CCCCCCCC(=O)NC(C)(C)C(=O)N[C@@H](CCCCN)C(=O)N[C@@H](CCCCN)C(=O)N[C@@H](CC(C)C)C(=O)NC(C)(C)C(=O)NCC(=O)N[C@H](C(=O)N[C@H](CO)CC(C)C)[C@@H](C)CC [Peptide 4c] (Octanoyl-[Aib]KKL[Aib]GI[Leu(ol)]) |  | inhibiting mycelial growth |  | >7 days | ~55% |  |
| CCCCCCCC(=O)NC(C)(C)C(=O)NCC(=O)N[C@@H](CC(C)C)C(=O)NC(C)(C)C(=O)N[C@@H](CCCCN)C(=O)NC(C)(C)C(=O)N[C@@H](CC(C)C)C(=O)NC(C)(C)C(=O)NCC(=O)N[C@H](C(=O)N[C@H](CO)CC(C)C)[C@@H](C)CC [Peptide 6] | 0.5 to 1 days | delayed growth | + |  |  |  |
| CCCCCCCC(=O)NC(C)(C)C(=O)NCC(=O)N[C@@H](CC(C)C)C(=O)NC(C)(C)C(=O)NCC(=O)N[C@@H](CCCCN)C(=O)N[C@@H](CC(C)C)C(=O)NC(C)(C)C(=O)NCC(=O)N[C@H](C(=O)N[C@H](CO)CC(C)C)[C@@H](C)CC [Peptide 5] |  | No growth occurred | ++++ | >7 days | > 95% | growth inhibition at maximum concentration tested (B. cinerea [3]): completely inhibited the growth; growth inhibition at maximum concentration tested (B. sorokiniana): strong growth inhibition effect; growth inhibition at maximum concentration tested (F. graminearum): completely inhibited the growth; MIC (F. graminearum): 5 to 15 µM; growth inhibition at maximum concentration tested (P. expansum): completely inhibited the growth; disease symptoms (in words) (B. cinerea [2]; common bean leaves, 15 µM): significant decrease in disease symptoms; disease symptoms (in words) (B. cinerea [2]; common bean leaves, 50 µM): almost complete annulment |
| CCCCCCCC(=O)NC(C)(C)C(=O)NCC(=O)N[C@@H](CC(C)C)C(=O)NC(C)(C)C(=O)NCC(=O)NCC(=O)N[C@@H](CC(C)C)C(=O)NC1(C(=O)NCC(=O)N[C@H](C(=O)N[C@H](CO)CC(C)C)[C@@H](C)CC)CCNCC1 [Peptide 8, [Api^8]-trichogin] (Octanoyl-[Aib]GL[Aib]GGL[Api]GI[Leu(ol)]) |  | No growth occurred |  | >7 days |  | growth inhibition at maximum concentration tested (B. cinerea [3]): completely inhibited the growth; growth inhibition at maximum concentration tested (B. sorokiniana): strong growth inhibition effect; growth inhibition at maximum concentration tested (F. graminearum): completely inhibited the growth; MIC (F. graminearum): 5 to 15 µM; growth inhibition at maximum concentration tested (P. expansum): completely inhibited the growth |
| CCCCCCCC(=O)NC(C)(C)C(=O)NCC(=O)N[C@@H](CC(C)C)C(=O)NC(C)(C)C(=O)N[C@@H](CCCCN)C(=O)NCC(=O)N[C@@H](CC(C)C)C(=O)NC(C)(C)C(=O)NCC(=O)N[C@H](C(=O)N[C@H](CO)CC(C)C)[C@@H](C)CC [Peptide 3] | 0 days | fungal growth was observed after 12 h | – |  |  |  |
| CCCCCCCC(=O)NC(C)(C)C(=O)NCC(=O)N[C@@H](CC(C)C)C(=O)NC(C)(C)C(=O)N[C@@H](CCCCN)C(=O)N[C@@H](CCCCN)C(=O)N[C@@H](CC(C)C)C(N)=O [Peptide 4c1] (Octanoyl-[Aib]GL[Aib]KKL-NH2) |  | inhibiting mycelial growth |  | >7 days | ~55% |  |
